Laboratory results from patent EP2886105B1, “Controlled-release formulations” (CAMURUS AB, priority 2007, dated 2018).
Counter-ions that a name gives are not always drawn.

How the values were obtained:
[1] = In vivo release of SOM after subcutaneous injection, plasma SOM by ELISA; design: species or system rat
Description: A liquid lipid formulation comprising SPC/GDO/EtOH = 44/44/12 wt% was prepared as described in Example 1.
A freeze-dried powder of SOM (MW ca 1.6 kDa) and TRE was prepared in the same way as in Example 4 giving a SOM (free base)-to-TRE weight ratio of 1:2.5.
The freeze-dried powder was added to the lipid formulation such that the final SOM (free base) concentration in the formulation was 2 wt% (ca 20 mg/mL) followed by end-over-end rotation for 1 day. […] The final filter-sterilized formulation was then injected subcutaneously to rats (male Sprague-Dawley).
In the in vivo rat model the release of SOM was followed during 14 days. The formulations were administered subcutaneously between the scapulae by using a syringe (23G, 0.6mm × 25mm). The SOM concentration in the rat plasma was quantified using a commercial ELISA kit (S-1164, Bachem/Peninsula Laboratories, LOQ = 0.03 ng/mL). The dose was 20 mg/kg and dose volume was 1 mL/kg corresponding to a drug load of 2.0wt% SOM (free base).

[2] = natural Somatostatin; cited from earlier work
[3] = cited from earlier work

With C[C@H](N)C(=O)NCC(=O)N[C@H]1CSSC[C@@H](C(=O)O)NC(=O)[C@H](CO)NC(=O)[C@H]([C@@H](C)O)NC(=O)[C@H](Cc2ccccc2)NC(=O)[C@H]([C@@H](C)O)NC(=O)[C@H](CCCCN)NC(=O)[C@H](Cc2c[nH]c3ccccc23)NC(=O)[C@H](Cc2ccccc2)NC(=O)[C@H](Cc2ccccc2)NC(=O)[C@H](CC(N)=O)NC(=O)[C@H](CCCCN)NC1=O [SOM, Somatostatin, acetate salt] the Release profile ([1]; rat plasma, subcutaneous, 20 mg/kg SOM lipid formulation, low initial release) was “without a burst effect”, the “SOM levels higher than the endogenous SOM levels (factor)” value ([1]; rat plasma, versus placebo formulation, depending on time point, over at least 14 days, s.c. 20 mg/kg) was 2-9 and the Duration of release ([1]; rat, subcutaneous, 20 mg/kg SOM lipid formulation) was “at least 14 days”. The biological half-life [2] was 1-3 minutes and the “half-life of SOM in rat plasma” value [3] was “a few minutes”.
